From US10344060B2 (priority 2013, dated 2019) come the findings set out here.

What all share (assay): cell-based
Common to all, as to type: cell-based

The target of experiment [1] is T1, hNav1.4 (Homo sapiens, UniProt P35499). To be noted: ratio of IonWorks Quattro IC50 values; Table 6.
Experiment [2] concerns the target T1, hNav1.4. To be noted: Table 12; for IC50: PatchXpress, tonic block, read-out: PX hNav1.4 Tonic IC50; for Nav1.4/Nav1.7: ratio of PX tonic IC50 values.
Experiment [3] concerns the target hNav1.7 (Homo sapiens, UniProt Q15858). To be noted: Table 12; PatchXpress, tonic block; read-out: PX hNav1.7 Tonic IC50.

T1 sequence (P35499 whole entry): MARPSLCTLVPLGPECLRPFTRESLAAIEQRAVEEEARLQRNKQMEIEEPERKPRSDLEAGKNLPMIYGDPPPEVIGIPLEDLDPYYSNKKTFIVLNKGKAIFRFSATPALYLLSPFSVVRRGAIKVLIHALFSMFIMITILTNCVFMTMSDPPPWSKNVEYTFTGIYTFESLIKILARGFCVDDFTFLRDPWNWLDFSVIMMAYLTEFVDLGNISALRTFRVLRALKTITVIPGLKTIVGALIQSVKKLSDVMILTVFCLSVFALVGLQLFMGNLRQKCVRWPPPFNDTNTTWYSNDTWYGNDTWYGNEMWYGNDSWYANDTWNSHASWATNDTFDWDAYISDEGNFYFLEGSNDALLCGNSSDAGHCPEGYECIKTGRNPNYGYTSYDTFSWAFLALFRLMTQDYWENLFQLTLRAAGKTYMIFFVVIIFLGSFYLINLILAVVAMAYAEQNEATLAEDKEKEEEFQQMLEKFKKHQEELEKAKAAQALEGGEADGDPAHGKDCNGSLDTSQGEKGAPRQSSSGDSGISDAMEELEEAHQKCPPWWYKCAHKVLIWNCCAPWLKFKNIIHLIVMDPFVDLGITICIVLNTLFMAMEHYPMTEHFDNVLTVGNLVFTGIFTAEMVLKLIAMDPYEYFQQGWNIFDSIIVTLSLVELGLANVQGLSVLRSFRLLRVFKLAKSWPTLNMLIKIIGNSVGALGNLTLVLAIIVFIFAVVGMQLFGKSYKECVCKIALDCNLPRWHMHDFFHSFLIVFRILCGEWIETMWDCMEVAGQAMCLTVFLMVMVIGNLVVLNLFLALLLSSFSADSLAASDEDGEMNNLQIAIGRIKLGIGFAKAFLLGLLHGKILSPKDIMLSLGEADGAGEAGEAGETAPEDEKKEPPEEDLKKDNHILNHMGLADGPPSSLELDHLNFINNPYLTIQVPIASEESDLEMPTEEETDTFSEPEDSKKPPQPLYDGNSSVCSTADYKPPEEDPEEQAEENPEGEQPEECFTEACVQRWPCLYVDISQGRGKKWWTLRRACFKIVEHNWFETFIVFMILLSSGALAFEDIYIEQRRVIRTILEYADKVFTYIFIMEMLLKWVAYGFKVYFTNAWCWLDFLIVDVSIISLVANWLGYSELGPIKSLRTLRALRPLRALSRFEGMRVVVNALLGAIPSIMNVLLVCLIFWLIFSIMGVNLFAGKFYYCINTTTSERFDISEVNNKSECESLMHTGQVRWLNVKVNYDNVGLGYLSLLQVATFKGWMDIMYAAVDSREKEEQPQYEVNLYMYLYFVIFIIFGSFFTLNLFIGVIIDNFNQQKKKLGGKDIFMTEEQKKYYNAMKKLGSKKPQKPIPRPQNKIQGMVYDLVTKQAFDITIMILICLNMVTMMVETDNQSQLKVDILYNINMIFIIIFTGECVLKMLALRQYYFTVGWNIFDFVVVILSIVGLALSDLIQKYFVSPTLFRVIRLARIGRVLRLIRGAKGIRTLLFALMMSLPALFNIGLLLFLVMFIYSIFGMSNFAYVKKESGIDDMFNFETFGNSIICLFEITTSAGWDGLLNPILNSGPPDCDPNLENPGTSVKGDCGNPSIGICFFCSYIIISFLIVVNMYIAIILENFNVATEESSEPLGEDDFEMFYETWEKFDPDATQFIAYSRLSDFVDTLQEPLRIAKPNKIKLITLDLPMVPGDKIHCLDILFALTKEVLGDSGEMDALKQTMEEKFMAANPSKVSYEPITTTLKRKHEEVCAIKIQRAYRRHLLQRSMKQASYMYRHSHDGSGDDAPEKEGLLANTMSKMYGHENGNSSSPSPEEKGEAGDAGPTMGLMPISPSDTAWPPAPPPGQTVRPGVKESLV
Chain of hNav1.7 (Q15858 whole entry): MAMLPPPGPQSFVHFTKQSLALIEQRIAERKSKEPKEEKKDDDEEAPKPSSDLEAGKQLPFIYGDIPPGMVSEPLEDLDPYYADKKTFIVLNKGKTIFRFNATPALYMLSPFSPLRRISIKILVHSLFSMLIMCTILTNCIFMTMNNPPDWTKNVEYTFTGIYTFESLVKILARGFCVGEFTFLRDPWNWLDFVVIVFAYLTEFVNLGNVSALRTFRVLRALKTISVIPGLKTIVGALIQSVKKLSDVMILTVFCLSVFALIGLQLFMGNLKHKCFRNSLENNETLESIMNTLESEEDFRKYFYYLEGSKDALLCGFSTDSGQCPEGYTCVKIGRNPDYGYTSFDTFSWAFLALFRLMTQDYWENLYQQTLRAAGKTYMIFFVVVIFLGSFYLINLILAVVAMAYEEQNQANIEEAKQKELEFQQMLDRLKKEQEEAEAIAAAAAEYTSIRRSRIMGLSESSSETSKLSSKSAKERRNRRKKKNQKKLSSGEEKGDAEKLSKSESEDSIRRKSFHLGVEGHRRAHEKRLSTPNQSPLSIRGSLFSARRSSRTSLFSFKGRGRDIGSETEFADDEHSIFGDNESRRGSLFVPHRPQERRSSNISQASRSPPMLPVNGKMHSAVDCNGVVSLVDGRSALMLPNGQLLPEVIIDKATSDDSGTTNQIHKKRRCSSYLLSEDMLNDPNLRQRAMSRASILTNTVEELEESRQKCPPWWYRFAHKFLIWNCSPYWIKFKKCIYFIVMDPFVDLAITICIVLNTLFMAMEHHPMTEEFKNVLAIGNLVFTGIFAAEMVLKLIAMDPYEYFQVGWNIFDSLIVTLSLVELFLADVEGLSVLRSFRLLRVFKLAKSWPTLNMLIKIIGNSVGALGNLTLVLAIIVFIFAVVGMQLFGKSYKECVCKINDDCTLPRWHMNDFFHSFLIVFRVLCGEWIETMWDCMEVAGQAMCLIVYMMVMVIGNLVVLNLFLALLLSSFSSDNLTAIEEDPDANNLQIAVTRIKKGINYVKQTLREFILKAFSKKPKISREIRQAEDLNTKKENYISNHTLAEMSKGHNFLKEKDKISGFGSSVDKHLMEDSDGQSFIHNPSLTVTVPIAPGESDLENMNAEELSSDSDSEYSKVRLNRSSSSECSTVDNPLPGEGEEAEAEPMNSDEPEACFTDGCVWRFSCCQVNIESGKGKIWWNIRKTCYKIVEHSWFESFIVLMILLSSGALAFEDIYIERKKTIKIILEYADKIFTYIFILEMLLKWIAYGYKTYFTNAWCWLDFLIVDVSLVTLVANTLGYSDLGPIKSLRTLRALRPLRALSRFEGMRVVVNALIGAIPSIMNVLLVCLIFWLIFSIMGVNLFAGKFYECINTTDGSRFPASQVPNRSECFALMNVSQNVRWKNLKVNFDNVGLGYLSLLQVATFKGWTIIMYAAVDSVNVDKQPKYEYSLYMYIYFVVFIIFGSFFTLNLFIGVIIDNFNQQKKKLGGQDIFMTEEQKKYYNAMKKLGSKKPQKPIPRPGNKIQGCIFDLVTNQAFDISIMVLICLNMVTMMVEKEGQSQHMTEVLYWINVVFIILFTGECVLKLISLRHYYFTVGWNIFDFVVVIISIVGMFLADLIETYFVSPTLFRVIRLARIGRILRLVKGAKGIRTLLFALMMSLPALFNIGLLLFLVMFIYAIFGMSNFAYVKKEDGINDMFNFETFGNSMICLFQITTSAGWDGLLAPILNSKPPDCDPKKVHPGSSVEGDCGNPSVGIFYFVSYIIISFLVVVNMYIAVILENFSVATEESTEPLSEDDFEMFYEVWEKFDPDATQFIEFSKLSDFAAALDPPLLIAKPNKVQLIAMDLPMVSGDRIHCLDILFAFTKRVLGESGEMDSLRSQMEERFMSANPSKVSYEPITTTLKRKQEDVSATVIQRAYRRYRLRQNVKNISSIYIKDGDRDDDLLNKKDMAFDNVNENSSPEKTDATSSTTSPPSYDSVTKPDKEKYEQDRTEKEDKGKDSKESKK

`CC[C@H](C)[C@H](NC(=O)[C@@H](NC(=O)[C@H](CCCCN)NC(=O)[C@H](CCCNC(=N)N)NC(=O)[C@@H]1CSSC[C@@H]2NC(=O)[C@H](C)NC(=O)[C@H](CCCNC(=N)N)NC(=O)[C@H](CCCCN)NC(=O)[C@H](CO)NC(=O)[C@H](CC(=O)O)NC(=O)[C@@H]3CSSC[C@H](NC(=O)[C@H](CCCNC(=N)N)NC(=O)[C@H](CC(C)C)NC(=O)CNC(=O)[C@H](Cc4cccc5ccccc45)NC(=O)[C@H](CSSC[C@H](NC(=O)[C@@H](N)Cc4ccc(O)cc4)C(=O)N[C@@H](CCC(N)=O)C(=O)N[C@@H](CCCCN)C(=O)N[C@@H](Cc4c[nH]c5ccccc45)C(=O)N[C@@H](CCSC)C(=O)N[C@@H](Cc4c[nH]c5ccccc45)C(=O)N[C@@H]([C@@H](C)O)C(=O)N3)NC2=O)C(=O)N[C@@H](CCCCN)C(=O)N[C@@H](CC(C)C)C(=O)N[C@@H](Cc2c[nH]c3ccccc23)C(=O)N1)[C@@H](C)CC)C(N)=O` [compound 37]: the Nav1.4/Nav1.7 in experiment [1] is reported as 4.
Still for that read-out and setting: then `CC[C@H](C)[C@H](NC(=O)[C@@H](NC(=O)[C@H](CCCCN)NC(=O)[C@H](CCCNC(=N)N)NC(=O)[C@@H]1CSSC[C@@H]2NC(=O)[C@H](C)NC(=O)[C@H](CCCNC(=N)N)NC(=O)[C@H](CCCCN)NC(=O)[C@H](CO)NC(=O)[C@H](CC(=O)O)NC(=O)[C@@H]3CSSC[C@H](NC(=O)[C@H](CCCNC(=N)N)NC(=O)[C@H](CC(C)C)NC(=O)CNC(=O)[C@H](CCC(=O)O)NC(=O)[C@H](CSSC[C@H](NC(=O)[C@@H](N)Cc4ccc(O)cc4)C(=O)N[C@@H](CCC(N)=O)C(=O)N[C@@H](CCCCN)C(=O)N[C@@H](Cc4c[nH]c5ccccc45)C(=O)N[C@@H](CCSC)C(=O)N[C@@H](Cc4c[nH]c5ccccc45)C(=O)N[C@@H]([C@@H](C)O)C(=O)N3)NC2=O)C(=O)N[C@@H](CCCCN)C(=O)N[C@@H](Cc2cccc3ccccc23)C(=O)N[C@@H](Cc2c[nH]c3ccccc23)C(=O)N1)[C@@H](C)CC)C(N)=O` [compound 42], with 3.
What is called IC50 is the midpoint of a concentration-inhibition curve. Turning to `C#CC[C@@H]1NC(=O)[C@@H]2CSSC[C@H](NC(=O)[C@H](Cc3ccc(O)cc3)NC(=O)[C@@H](N)CC#N)C(=O)N[C@@H](CCC(N)=O)C(=O)N[C@@H](CCCCN)C(=O)N[C@@H](Cc3c[nH]c4ccccc34)C(=O)N[C@@H](CCCC)C(=O)N[C@@H](Cc3c[nH]c4ccccc34)C(=O)N[C@@H]([C@@H](C)O)C(=O)N[C@H]3CSSC[C@H](NC(=O)[C@H](CCCNC(=N)N)NC(=O)[C@H](CC(C)C)NC(=O)CNC1=O)C(=O)N[C@@H](CCCCN)C(=O)N[C@@H](CC(C)C)C(=O)N[C@@H](Cc1c[nH]c4ccc(Br)cc14)C(=O)N[C@H](C(=O)N[C@@H](CCCNC(=N)N)C(=O)N[C@@H](CCCCN)C(=O)N[C@H](C(=O)N[C@H](C(N)=O)[C@@H](C)CC)[C@@H](C)CC)CSSC[C@H](NC(=O)[C@H](C)NC(=O)[C@H](CCCNC(=N)N)NC(=O)[C@H](CCCCN)NC(=O)[C@H](CCC(=O)O)NC(=O)[C@H](CC(=O)O)NC3=O)C(=O)N2` [compound 1244], the IC50 is 7.4 nM in experiment [2] and 0.64 nM in experiment [3]. In addition, the Nav1.4/Nav1.7 in experiment [2] is 12.
The corresponding values for `C#CC[C@H](N)C(=O)N[C@@H](Cc1ccc(O)cc1)C(=O)N[C@H]1CSSC[C@@H]2NC(=O)[C@@H]3CSSC[C@@H](C(=O)N[C@@H](CCCNC(=N)N)C(=O)N[C@@H](CCCCN)C(=O)N[C@@H](CCC(=O)O)C(=O)N[C@H](C(N)=O)[C@@H](C)CC)NC(=O)[C@H](Cc4c[nH]c5ccccc45)NC(=O)[C@H](CC(C)C)NC(=O)[C@H](CCCCN)NC(=O)[C@H](CSSC[C@H](NC(=O)[C@H]([C@@H](C)O)NC(=O)[C@H](Cc4c[nH]c5ccccc45)NC(=O)[C@H](CCCC)NC(=O)[C@H](CCc4ccc(Br)cc4)NC(=O)[C@H](CCCCN)NC(=O)[C@H](CCC(N)=O)NC1=O)C(=O)N[C@@H](CC(=O)O)C(=O)N[C@@H](CO)C(=O)N[C@@H](CCCCN)C(=O)N[C@@H](CCCNC(=N)N)C(=O)N[C@@H](C)C(=O)N3)NC(=O)[C@H](CCCNC(=N)N)NC(=O)[C@H](CC(C)C)NC(=O)CNC(=O)[C@H](CCC(=O)O)NC2=O` [compound 1603] are 47.9 nM, 0.23 nM and 207.
In the same order, the values of `C#CC[C@@H]1NC(=O)[C@@H]2CSSC[C@H](NC(=O)[C@H](Cc3ccc(O)cc3)NC(=O)[C@@H](N)CC#N)C(=O)N[C@@H](CCC(N)=O)C(=O)N[C@@H](CCCCN)C(=O)N[C@@H](Cc3c[nH]c4ccccc34)C(=O)N[C@@H](CCCC)C(=O)N[C@@H](Cc3c[nH]c4ccccc34)C(=O)N[C@@H]([C@@H](C)O)C(=O)N[C@H]3CSSC[C@H](NC(=O)[C@H](CCCNC(=N)N)NC(=O)[C@H](CC(C)C)NC(=O)CNC1=O)C(=O)N[C@@H](CCCCN)C(=O)N[C@@H](CC(C)C)C(=O)N[C@@H](Cc1c[nH]c4ccc(C)cc14)C(=O)N[C@H](C(=O)N[C@@H](CCCNC(=N)N)C(=O)N[C@@H](CCCCN)C(=O)N[C@@H](CCC(=O)O)C(=O)N[C@H](C(N)=O)[C@@H](C)CC)CSSC[C@H](NC(=O)[C@H](C)NC(=O)[C@H](CCCNC(=N)N)NC(=O)[C@H](CCCCN)NC(=O)[C@H](CO)NC(=O)[C@H](CC(=O)O)NC3=O)C(=O)N2` [compound 1662] are 89.8 nM, 0.52 nM and 172.
In the same order, the values of `C#CC[C@@H]1NC(=O)[C@@H]2CSSC[C@H](NC(=O)[C@@H](N)CC#N)C(=O)N[C@@H](CCC(N)=O)C(=O)N[C@@H](CCCCN)C(=O)N[C@@H](Cc3c[nH]c4ccccc34)C(=O)N[C@@H](CCCC)C(=O)N[C@@H](Cc3c[nH]c4ccccc34)C(=O)N[C@@H]([C@@H](C)O)C(=O)N[C@H]3CSSC[C@H](NC(=O)[C@H](CCCNC(=N)N)NC(=O)[C@H](CC(C)C)NC(=O)CNC1=O)C(=O)N[C@@H](CCCCN)C(=O)N[C@@H](CC(C)C)C(=O)N[C@@H](Cc1c[nH]c4ccccc14)C(=O)N[C@H](C(=O)N[C@@H](CCCNC(=N)N)C(=O)N[C@@H](CCCCN)C(=O)N[C@@H](CCC(=O)O)C(=O)N[C@H](C(N)=O)[C@@H](C)CC)CSSC[C@H](NC(=O)[C@H](C)NC(=O)[C@H](CCCNC(=N)N)NC(=O)[C@H](CCCCN)NC(=O)[C@H](CCC(=O)O)NC(=O)[C@H](CC(=O)O)NC3=O)C(=O)N2` [compound 1672] are 457 nM, 2.87 nM and 159.
As for `C#CC[C@H](N)C(=O)N[C@H]1CSSC[C@@H]2NC(=O)[C@@H]3CSSC[C@@H](C(=O)N[C@@H](CCCNC(=N)N)C(=O)N[C@@H](CCCCN)C(=O)N[C@@H](CCC(=O)O)C(=O)N[C@H](C(N)=O)[C@@H](C)CC)NC(=O)[C@H](Cc4c[nH]c5ccccc45)NC(=O)[C@H](CC(C)C)NC(=O)[C@H](CCCCN)NC(=O)[C@H](CSSC[C@H](NC(=O)[C@H]([C@@H](C)O)NC(=O)[C@H](Cc4c[nH]c5ccccc45)NC(=O)[C@H](CCCC)NC(=O)[C@H](Cc4c[nH]c5ccccc45)NC(=O)[C@H](CCCCN)NC(=O)[C@H](CCC(N)=O)NC1=O)C(=O)N[C@@H](CC(=O)O)C(=O)N[C@@H](CO)C(=O)N[C@@H](CCCCN)C(=O)N[C@@H](CCCNC(=N)N)C(=O)N[C@@H](C)C(=O)N3)NC(=O)[C@H](C(C)C)NC(=O)[C@H](CC(C)C)NC(=O)CNC(=O)[C@H](CCC(=O)O)NC2=O` [compound 1688], the IC50 was 1120 nM in experiment [2] and 3.99 nM in experiment [3]. Also, the Nav1.4/Nav1.7 in experiment [2] stood at 280.
